Assay results: patent US20250295734A1, “ANTICOAGULANT PROTEINS AND THEIR USE FOR TREATING DISEASES ASSOCIATED WITH THE ACTIVATION OF NEUTROPHILS” (BIOXODES, priority 2018, published 2025)

Tested on: human washed platelets
Test: In vitro platelet aggregation assay
Assay type: cell-based
Details: agent alone (TRAP 20 μM, ADP 20 μM or Ir-CPI 500 μg/100 μL); n=1
Protocol: Blood from healthy human donors, who had not taken anti-platelet agents within the 15 days prior to collection, was collected in citrated tubes and centrifuged for 13 min at 200 g. The platelet-rich plasma was collected and centrifuged for 13 min at 900 g in Tyrode buffer (138 mM NaCl, 2.9 mM KCl, 12 mM NaHCO3, 5.5 mM glucose, 1.8 mM CaCl2 and 0.4 mM MgCl2, pH 7.4) containing 0.2% BSA, apyrase 0.02 U/mL and PGI2 500 nM. Washed platelets were resuspended in the Tyrode/BSA 0.2%/apyrase/PGI2 solution and centrifuged at 900 g for 13 min. Platelets were resuspended in a Tyrode/BSA 0.2% solution at a concentration of 3.10^8 platelets/mL. Platelets were kept at 37° C. for 30 min in a solution containing […]. Next, platelets were incubated at 37° C. under agitation for 5 to 10 minutes in an aggregometer APACT 4004 with ADP (adenosine diphosphate), TRAP (Thrombin Receptor-Activating Peptide) and/or Ir-CPI.
The effect of Ir-CPI on platelet aggregation was assessed in vitro by using isolated human washed platelets (n=1).

Compound: Nc1ncnc2c1ncn2[C@@H]1O[C@H](COP(=O)(O)OP(=O)(O)O)[C@@H](O)[C@H]1O [ADP, adenosine diphosphate, reference compound]
- Aggregation Latency: 51.8 s
- Aggregation Max: 6.9%
- Aggregation Slope: 19.4 %/min
